Test results as given in patent US5756327A, “Recombinant mycobacterial isoleucyl-tRNA synthetase genes, tester strains and assays” (priority 1995, dated 1998).

Experiments:
[1] = target: TB IleRS (M. tuberculosis isoleucyl-tRNA synthetase) (Mycobacterium tuberculosis, UniProt P9WFV3); assay: tRNA charging (aminoacylation) assay, sensitivity of TB IleRS to PMA; format: biochemical; conditions: concentrations of up to 250 μM
Procedure: The sensitivity of the TB IleRS for the drug pseudomonic acid A (PMA; a specific inhibitor of some prokaryotic IleRS enzymes) was tested.
The conditions of the charging assay were as follows: At time zero, 10 μl of crude extract or purified protein was added to a reaction mixture containing 50 mM HEPES, pH 7.5, 8 mM MgCl2, 20 μM tritiated isoleucine (New England Nuclear) with a specific activity of 2200 cpm/pmol, 10 mM KF, 4 mM ATP, and 0.1 mM total tRNA from either E. coli (Sigma) or yeast (S. cerevisiae, Boehringer-Mannheim Biochemicals). At various times, 10-20 μl of the reaction were withdrawn, spotted onto Whatman 3 MM cellolose filter diskettes, and the reaction was quenched by placing the filters in 5% ice cold TCA (trichloroacetic acid). Diskettes were washed three times with ice cold 5% TCA, once with 5% ice cold ethanol, once with ether, and air dried. The amount of [^3 H]-isoleucine incorporated into tRNA bound to the filter was determined by scintillation counting in 5 mls Betafluor (Packard 1600 TR scintillation counter).

CC[C@H](C)[C@H](N)C(=O)O = assay: cells, lysate or membranes named; conditions: pH 7.5

Chain of TB IleRS (M. tuberculosis isoleucyl-tRNA synthetase) (P9WFV3 2-1032): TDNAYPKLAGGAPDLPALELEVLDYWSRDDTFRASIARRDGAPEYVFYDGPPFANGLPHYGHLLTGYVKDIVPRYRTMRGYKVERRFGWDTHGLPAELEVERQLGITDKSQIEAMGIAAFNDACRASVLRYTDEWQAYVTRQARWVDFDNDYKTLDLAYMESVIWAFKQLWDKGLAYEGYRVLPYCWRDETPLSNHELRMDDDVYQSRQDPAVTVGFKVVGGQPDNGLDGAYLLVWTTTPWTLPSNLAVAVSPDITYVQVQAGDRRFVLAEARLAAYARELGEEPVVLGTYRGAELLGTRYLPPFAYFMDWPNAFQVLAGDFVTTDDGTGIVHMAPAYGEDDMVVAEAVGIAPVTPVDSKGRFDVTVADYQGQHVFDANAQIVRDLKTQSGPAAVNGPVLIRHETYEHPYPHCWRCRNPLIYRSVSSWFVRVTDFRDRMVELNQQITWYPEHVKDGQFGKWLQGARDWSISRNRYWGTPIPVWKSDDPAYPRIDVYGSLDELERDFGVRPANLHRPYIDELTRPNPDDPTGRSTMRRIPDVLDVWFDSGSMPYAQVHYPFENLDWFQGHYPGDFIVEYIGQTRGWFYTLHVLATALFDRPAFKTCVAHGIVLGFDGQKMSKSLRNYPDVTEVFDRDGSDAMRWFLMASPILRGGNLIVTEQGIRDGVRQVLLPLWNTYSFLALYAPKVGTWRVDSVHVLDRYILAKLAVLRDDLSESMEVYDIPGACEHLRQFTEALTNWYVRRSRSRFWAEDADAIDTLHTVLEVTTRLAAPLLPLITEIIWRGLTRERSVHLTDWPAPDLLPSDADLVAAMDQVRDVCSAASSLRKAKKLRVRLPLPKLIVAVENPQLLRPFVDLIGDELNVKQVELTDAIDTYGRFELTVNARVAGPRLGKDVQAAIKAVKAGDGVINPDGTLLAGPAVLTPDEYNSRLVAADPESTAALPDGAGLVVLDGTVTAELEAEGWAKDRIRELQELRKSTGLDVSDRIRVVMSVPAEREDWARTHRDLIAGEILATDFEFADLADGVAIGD

Compound	inhibition of the charging activity of the enzyme [1]	Km (CC[C@H](C)[C@H](N)C(=O)O) [µM]
C/C(=C\C(=O)OCCCCCCCCC(=O)O)C[C@@H]1OC[C@H](C[C@@H]2O[C@H]2[C@@H](C)[C@H](C)O)[C@@H](O)[C@H]1O [PMA, pseudomonic acid A]	did not inhibit	
purified TB GST-IleRS fusion protein with or without thrombin cleavage (Mycobacterium tuberculosis H37Rv)		1.1 ± 0.2
